Measured values from patent US10562898B2, “Substituted benzenesulfonamides as inhibitors of alpha-4 beta-7 integrin activity” (EA PHARMA CO., LTD., priority 2016, dated 2020).

Each compound was assayed against T1, α4β1 integrin (Homo sapiens, UniProt P05556+P13612) (assay: VCAM-1/α4β1 integrin binding inhibitory activity evaluation test (Jurkat cells binding to VCAM-1/Fc)). Settings: recombinant human VCAM-1/Fc.
T1 construct: a cell line Jurkat, which is known to express α4β1 integrin; endogenous in cells; host or cells: Jurkat (human T cell line)
T1 sequence (P13612 34-1032): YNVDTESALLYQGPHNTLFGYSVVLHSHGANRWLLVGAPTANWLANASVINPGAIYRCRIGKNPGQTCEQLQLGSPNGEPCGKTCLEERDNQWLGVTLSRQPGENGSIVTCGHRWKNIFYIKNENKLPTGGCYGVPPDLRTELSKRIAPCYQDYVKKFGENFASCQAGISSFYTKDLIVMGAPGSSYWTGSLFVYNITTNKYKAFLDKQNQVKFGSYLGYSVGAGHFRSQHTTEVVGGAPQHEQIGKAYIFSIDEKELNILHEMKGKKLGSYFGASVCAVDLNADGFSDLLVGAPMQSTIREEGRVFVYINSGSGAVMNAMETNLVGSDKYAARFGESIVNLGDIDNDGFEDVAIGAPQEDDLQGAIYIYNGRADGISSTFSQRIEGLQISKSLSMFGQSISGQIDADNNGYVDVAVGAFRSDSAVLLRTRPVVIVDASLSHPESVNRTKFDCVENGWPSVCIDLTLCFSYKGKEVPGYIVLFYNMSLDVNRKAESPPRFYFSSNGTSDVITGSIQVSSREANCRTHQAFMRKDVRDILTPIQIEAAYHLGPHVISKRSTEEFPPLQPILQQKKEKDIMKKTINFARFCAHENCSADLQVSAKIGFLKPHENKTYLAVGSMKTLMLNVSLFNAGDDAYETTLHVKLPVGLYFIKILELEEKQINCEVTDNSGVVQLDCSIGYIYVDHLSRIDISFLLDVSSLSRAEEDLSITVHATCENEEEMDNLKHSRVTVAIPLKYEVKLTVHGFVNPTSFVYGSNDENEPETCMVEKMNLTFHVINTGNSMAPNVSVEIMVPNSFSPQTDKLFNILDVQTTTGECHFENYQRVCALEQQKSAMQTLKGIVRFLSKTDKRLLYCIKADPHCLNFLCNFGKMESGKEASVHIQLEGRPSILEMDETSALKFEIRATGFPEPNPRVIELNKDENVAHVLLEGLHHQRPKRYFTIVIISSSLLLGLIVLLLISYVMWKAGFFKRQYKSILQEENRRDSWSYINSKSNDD
T1 sequence (P05556 21-798): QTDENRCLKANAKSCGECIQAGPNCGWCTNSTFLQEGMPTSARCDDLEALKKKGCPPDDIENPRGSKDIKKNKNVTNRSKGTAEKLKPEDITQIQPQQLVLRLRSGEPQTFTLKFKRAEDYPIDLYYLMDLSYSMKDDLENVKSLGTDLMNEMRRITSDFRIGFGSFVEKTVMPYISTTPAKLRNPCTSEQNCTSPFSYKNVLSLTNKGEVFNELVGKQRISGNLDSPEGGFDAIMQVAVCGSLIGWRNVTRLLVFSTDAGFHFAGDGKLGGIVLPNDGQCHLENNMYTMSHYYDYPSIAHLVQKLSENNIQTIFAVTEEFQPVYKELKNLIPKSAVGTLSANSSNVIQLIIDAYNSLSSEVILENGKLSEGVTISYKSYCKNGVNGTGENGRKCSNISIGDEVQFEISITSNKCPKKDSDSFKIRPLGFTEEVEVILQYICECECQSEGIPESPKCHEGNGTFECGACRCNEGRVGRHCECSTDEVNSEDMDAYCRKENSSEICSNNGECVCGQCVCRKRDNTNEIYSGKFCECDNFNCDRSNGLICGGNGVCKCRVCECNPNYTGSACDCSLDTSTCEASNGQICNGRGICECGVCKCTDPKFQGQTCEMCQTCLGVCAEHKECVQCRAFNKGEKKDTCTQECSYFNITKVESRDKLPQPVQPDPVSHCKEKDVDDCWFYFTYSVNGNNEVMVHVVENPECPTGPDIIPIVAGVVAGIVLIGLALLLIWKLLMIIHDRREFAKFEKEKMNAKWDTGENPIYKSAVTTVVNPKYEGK
Type: cell-based
Protocol: (1) VCAM-1/α4β1 Integrin Binding Inhibitory Activity Evaluation Test
Each test substance was measured in terms of an ability to inhibit the VCAM-1 binding of a human T cell line, namely, a cell line Jurkat, which is known to express α4β1 integrin.
A solution of recombinant human VCAM-1/Fc (R&D Systems, Inc.) (1 μg/mL) diluted with a buffer A (carbonate buffer, pH 9.6) was placed in an amount of 50 μL/well in a 96-well microtiter plate, followed by incubation at 4° C. overnight. After the plate was washed with PBS once, 150 μL/well of Block Ace (Snow Brand Milk Products Co., Ltd.) was added, followed by incubation at room temperature for 2 hours. After removal, the plate was washed with PBS once.
Then, 100 μL of the Jurkat cells (2×10^6 cells/mL) and 100 μL of the test substance at each of various concentrations diluted with a binding buffer (DMEM containing 40 mM HEPES, 0.2% BSA, and 4 mM MnCl2) were added to the plate coated with the VCAM-1/Fc (5×10^5 cells/well), followed by incubation at 30° C. for 15 to 60 minutes. After the cells were bound to the wells, the plate was washed with PBS to remove unbound cells. A buffer C (PBS containing 1.5% Triton X-100) was added in an amount 50 μL/well to the plate to lyse the bound Jurkat cells. After 30 μL of a substrate buffer (Promega, CytoTox 96 Non-Radioactive Cytotoxicity Assay) was added to 30 μL of the cell lysate, a reaction was allowed to proceed at room temperature in the dark for 30 minutes. After 30 μL of a stop solution (Promega, CytoTox 96 Non-Radioactive Cytotoxicity Assay) was added to each, and then an absorbance at 490 nm was measured using a plate reader. The absorbance obtained here represents a detection result of an activity of lactate dehydrogenase (LDH) eluted in the supernatant of each well, that is, the absorbance is proportional to the number of Jurkat cells bound to the VCAM-1 and thus remaining on the plate. The test was performed in duplicate. Provided that the absorbance of a well containing no test substance was 100%, a cell binding rate with the test substance at each of the various concentrations was figured out, and a concentration IC50 which brought about 50% binding inhibition was calculated.
Cn1c(=O)n(-c2ccc(C[C@H](NC(=O)c3cc(F)c(NS(=O)(=O)c4ccc(NC(=O)C(C)(C)C)cc4)cc3F)C(=O)O)cc2)c(=O)c2ccncc21 [Compound A1, (2S)-2-[[4-[[4-(2,2-dimethylpropanoylamino)phenyl]sulfonylamino]-2,5-difluoro-benzoyl]amino]-3-[4-(1-methyl-2,4-dioxo-pyrido[3,4-d]pyrimidin-3-yl)phenyl]propanoic acid] gave an IC50 of 440 nM. CC(=O)Nc1ccc(S(=O)(=O)Nc2cc(F)c(C(=O)N[C@@H](Cc3ccc(-n4c(=O)c5ccncc5n(C)c4=O)cc3)C(=O)O)cc2F)cc1 [Compound A2] showed an IC50 of 1100 nM. For CCC(CC)C(=O)Nc1ccc(S(=O)(=O)Nc2cc(F)c(C(=O)N[C@@H](Cc3ccc(-n4c(=O)c5ccncc5n(C)c4=O)cc3)C(=O)O)cc2F)cc1 [Compound A3], the IC50 was 2400 nM. Compound CCC(CC)C(=O)Nc1ccc(S(=O)(=O)Nc2cc(F)c(C(=O)N[C@@H](Cc3ccc(-n4c(=O)c(C)c(C)n(C)c4=O)cc3)C(=O)O)cc2F)cc1 [Compound A4] has an IC50 of 2500 nM. Cn1c(=O)n(-c2ccc(C[C@H](NC(=O)c3cc(F)c(NS(=O)(=O)c4ccc(NC(=O)NC(C)(C)C)cc4)cc3F)C(=O)O)cc2)c(=O)c2ccncc21 [Compound A5] was tested, and the IC50 was 2000 nM. Cn1c(=O)n(-c2ccc(C[C@H](NC(=O)c3cc(F)c(NS(=O)(=O)c4ccc(NC(=O)C5CCNCC5)cc4)cc3F)C(=O)O)cc2)c(=O)c2ccncc21 [Compound A6, (2S)-2-[[2,5-difluoro-4-[[4-(piperidine-4-carbonylamino)phenyl]sulfonylamino]benzoyl]amino]-3-[4-(1-methyl-2,4-dioxo-pyrido[3,4-d]pyrimidin-3-yl)phenyl]propanoic acid] gave an IC50 of 890 nM. Work on Cn1c(=O)n(-c2ccc(C[C@H](NC(=O)c3cc(F)c(NS(=O)(=O)c4ccc(NC(=O)c5ccncc5)cc4)cc3F)C(=O)O)cc2)c(=O)c2ccncc21 [Compound A7] yielded an IC50 of 2000 nM. Cc1c(C)n(C)c(=O)n(-c2ccc(C[C@H](NC(=O)c3cc(F)c(NS(=O)(=O)c4ccc(NC(=O)C(C)(C)C)cc4)cc3F)C(=O)O)cc2)c1=O [Compound A8] gave an IC50 of 1600 nM. Cn1c(=O)n(-c2ccc(C[C@H](NC(=O)c3cc(F)c(NS(=O)(=O)c4ccc(NC(=O)C(C)(C)C)s4)cc3F)C(=O)O)cc2)c(=O)c2ccncc21 [Compound A9] showed an IC50 of 160 nM. Cc1c(C)n(C)c(=O)n(-c2ccc(C[C@H](NC(=O)c3cc(F)c(NS(=O)(=O)c4ccc(NC(=O)C(C)(C)C)s4)cc3F)C(=O)O)cc2)c1=O [Compound A10] showed an IC50 of 400 nM. Work on Cc1c(C)n(C)c(=O)n(-c2ccc(C[C@H](NC(=O)c3cc(F)c(NS(=O)(=O)c4cc(NC(=O)C(C)(C)C)cs4)cc3F)C(=O)O)cc2)c1=O [Compound A11] yielded an IC50 of 3200 nM. Cn1c(=O)n(-c2ccc(C[C@H](NC(=O)c3cc(F)c(NS(=O)(=O)c4ccc(NC(=O)C(C)(C)C)c(F)c4)cc3F)C(=O)O)cc2)c(=O)c2ccncc21 [Compound A12] gave an IC50 of 1200 nM. Work on Cn1c(=O)n(-c2ccc(C[C@H](NC(=O)c3cc(F)c(NS(=O)(=O)c4ccc(NC(=O)C5CCOCC5)cc4)cc3F)C(=O)O)cc2)c(=O)c2ccncc21 [Compound A14] yielded an IC50 of 550 nM. Cc1c(C)n(C)c(=O)n(-c2ccc(C[C@H](NC(=O)c3cc(F)c(NS(=O)(=O)c4ccc(NC(=O)C5CCOCC5)cc4)cc3F)C(=O)O)cc2)c1=O [Compound A15] was tested, and the IC50 was 950 nM. Work on COC1(C(=O)Nc2ccc(S(=O)(=O)Nc3cc(F)c(C(=O)N[C@@H](Cc4ccc(-n5c(=O)c6ccncc6n(C)c5=O)cc4)C(=O)O)cc3F)cc2)CC1 [Compound A16] yielded an IC50 of 1200 nM. COC1(C(=O)Nc2ccc(S(=O)(=O)Nc3cc(F)c(C(=O)N[C@@H](Cc4ccc(-n5c(=O)c(C)c(C)n(C)c5=O)cc4)C(=O)O)cc3F)cc2)CC1 [Compound A17] showed an IC50 of 1300 nM. With Cn1c(=O)n(-c2ccc(C[C@H](NC(=O)c3cc(F)c(NS(=O)(=O)c4ccc(NC(=O)C(C)(C)CO)cc4)cc3F)C(=O)O)cc2)c(=O)c2ccncc21 [Compound A18] the IC50 was 720 nM. Work on Cc1c(C)n(C)c(=O)n(-c2ccc(C[C@H](NC(=O)c3cc(F)c(NS(=O)(=O)c4ccc(NC(=O)C(C)(C)C)cn4)cc3F)C(=O)O)cc2)c1=O [Compound A19] yielded an IC50 of 370 nM. Cc1c(C)n(C)c(=O)n(-c2ccc(C[C@H](NC(=O)c3cc(F)c(NS(=O)(=O)c4ccc(NC(=O)C5(C(F)(F)F)CC5)cc4)cc3F)C(=O)O)cc2)c1=O [Compound A20] gave an IC50 of 850 nM. Work on Cc1c(C)n(C)c(=O)n(-c2ccc(C[C@H](NC(=O)c3cc(F)c(NS(=O)(=O)c4ccc(NC(=O)C(C)(C)CO)cc4)cc3F)C(=O)O)cc2)c1=O [Compound A21] yielded an IC50 of 680 nM. Cc1c(C)n(C)c(=O)n(-c2ccc(C[C@H](NC(=O)c3cc(F)c(NS(=O)(=O)c4ccc(NC(=O)C5(O)CC5)cc4)cc3F)C(=O)O)cc2)c1=O [Compound A22] gave an IC50 of 830 nM. Cn1c(=O)n(-c2ccc(C[C@H](NC(=O)c3cc(F)c(NS(=O)(=O)c4ccc(NC(=O)C5(O)CC5)cc4)cc3F)C(=O)O)cc2)c(=O)c2ccncc21 [Compound A23] gave an IC50 of 820 nM. In the case of Cn1c(=O)n(-c2ccc(C[C@H](NC(=O)c3cc(F)c(NS(=O)(=O)c4ccc(NC(=O)C5(C(F)(F)F)CC5)cc4)cc3F)C(=O)O)cc2)c(=O)c2ccncc21 [Compound A24], the IC50 is reported as 1400 nM. In the case of Cc1c(C)n(C)c(=O)n(-c2ccc(C[C@H](NC(=O)c3cc(F)c(NS(=O)(=O)c4ccc(NC(=O)C(C)(C)C)nc4)cc3F)C(=O)O)cc2)c1=O [Compound A25], the IC50 is reported as 2300 nM. With Cn1c(=O)n(-c2ccc(C[C@H](NC(=O)c3cc(F)c(NS(=O)(=O)c4ccc(NC(=O)C(C)(C)C)cc4)cc3F)C(=O)O)cn2)c(=O)c2ccncc21 [Compound A26] the IC50 was 4600 nM. For Cn1c2c(c(=O)n(-c3ccc(C[C@H](NC(=O)c4cc(F)c(NS(=O)(=O)c5ccc(NC(=O)C(C)(C)C)cc5)cc4F)C(=O)O)cc3)c1=O)CCOC2 [Compound A27], the IC50 was 910 nM. Cc1c(C)n(C)c(=O)n(-c2ccc(C[C@H](NC(=O)c3cc(F)c(NS(=O)(=O)c4ccc(NC(=O)C(C)(C)C)cc4)cc3F)C(=O)O)cn2)c1=O [Compound A28] gave an IC50 of 3600 nM. Cn1c(=O)n(-c2ccc(C[C@H](NC(=O)c3cc(F)c(NS(=O)(=O)c4ccc(NC(=O)C5(c6ccccc6)CC5)cc4)cc3F)C(=O)O)cn2)c(=O)c2ccncc21 [Compound A29] gave an IC50 of 12000 nM. With Cc1c(C)n(C)c(=O)n(-c2ccc(C[C@H](NC(=O)c3cc(F)c(NS(=O)(=O)c4ccc(NC(=O)C5(c6ccccc6)CC5)cc4)cc3F)C(=O)O)cc2)c1=O [Compound A30] the IC50 was 2700 nM. Cn1c(=O)n(-c2ccc(C[C@H](NC(=O)c3cc(F)c(NS(=O)(=O)c4ccc(NC(=O)C(C)(C)C)cn4)cc3F)C(=O)O)cn2)c(=O)c2ccncc21 [Compound A31] was tested, and the IC50 was 1900 nM. Work on Cc1c(C)n(C)c(=O)n(-c2ccc(C[C@H](NC(=O)c3cc(F)c(NS(=O)(=O)c4ccc(NC(=O)C(C)(C)C)cn4)cc3F)C(=O)O)cn2)c1=O [Compound A32] yielded an IC50 of 4400 nM. Compound Cn1c2c(c(=O)n(-c3ccc(C[C@H](NC(=O)c4cc(F)c(NS(=O)(=O)c5ccc(NC(=O)C(C)(C)C)cc5)cc4F)C(=O)O)cc3)c1=O)COCC2 [Compound A33] has an IC50 of 1000 nM. For Cc1c(C)n(C)c(=O)n(-c2ccc(C[C@H](NC(=O)c3cc(F)c(NS(=O)(=O)c4ccc(-n5ccc(C6CCOCC6)cc5=O)cc4)cc3F)C(=O)O)cc2)c1=O [Compound A34], the IC50 was 3600 nM. Cc1c(C)n(C)c(=O)n(-c2ccc(C[C@H](NC(=O)c3cc(F)c(NS(=O)(=O)c4ccc(N(C)C(=O)C(C)(C)C)cc4)cc3F)C(=O)O)cc2)c1=O [Compound A35] showed an IC50 of 3800 nM. COc1cc2c(=O)n(-c3ccc(C[C@H](NC(=O)c4cc(F)c(NS(=O)(=O)c5ccc(NC(=O)C(C)(C)C)cc5)cc4F)C(=O)O)cc3)c(=O)n(C)c2cn1 [Compound A36] gave an IC50 of 1800 nM. Cc1cn(C)c(=O)n(-c2ccc(C[C@H](NC(=O)c3cc(F)c(NS(=O)(=O)c4ccc(NC(=O)C(C)(C)C)cc4)cc3F)C(=O)O)cc2)c1=O [Compound A37] showed an IC50 of 4100 nM. In the case of CN1C(=O)N(c2ccc(S(=O)(=O)Nc3cc(F)c(C(=O)N[C@@H](Cc4ccc(-n5c(=O)c6ccncc6n(C)c5=O)nc4)C(=O)O)cc3F)cc2)C(=O)C1(C)C [Compound A38], the IC50 is reported as 4000 nM. Cn1c2c(c(=O)n(-c3ccc(C[C@H](NC(=O)c4cc(F)c(NS(=O)(=O)c5ccc(NC(=O)C(C)(C)C)cc5)cc4F)C(=O)O)cn3)c1=O)CCOC2 [Compound A40] showed an IC50 of 2300 nM. CN1CCc2c(n(C)c(=O)n(-c3ccc(C[C@H](NC(=O)c4cc(F)c(NS(=O)(=O)c5ccc(NC(=O)C(C)(C)C)cc5)cc4F)C(=O)O)cc3)c2=O)C1 [Compound A41] was tested, and the IC50 was 480 nM. Cn1ccc(=O)n(-c2ccc(C[C@H](NC(=O)c3cc(F)c(NS(=O)(=O)c4ccc(NC(=O)C(C)(C)C)cc4)cc3F)C(=O)O)cc2)c1=O [Compound A42] showed an IC50 of 2500 nM.
